In US7534809B2, “Phospho-indoles as HIV inhibitors” (priority 2004, dated 2009):
pIC50: −log10 of the molar value. Converted amounts (≈) assume the structure as drawn. Like-named read-outs stand apart in the source and are kept apart here. Marks after values point to notes of the source that are not given here.

How the values were obtained:
CYP3A4 = target: T1, CYP3A4 (Homo sapiens, UniProt P08684); assay: CYP450 inhibition, CYP3A4/BFC screening kit; type: in vitro ADME
T1 construct: purchased BD Biosciences
T1 sequence (P08684 whole entry): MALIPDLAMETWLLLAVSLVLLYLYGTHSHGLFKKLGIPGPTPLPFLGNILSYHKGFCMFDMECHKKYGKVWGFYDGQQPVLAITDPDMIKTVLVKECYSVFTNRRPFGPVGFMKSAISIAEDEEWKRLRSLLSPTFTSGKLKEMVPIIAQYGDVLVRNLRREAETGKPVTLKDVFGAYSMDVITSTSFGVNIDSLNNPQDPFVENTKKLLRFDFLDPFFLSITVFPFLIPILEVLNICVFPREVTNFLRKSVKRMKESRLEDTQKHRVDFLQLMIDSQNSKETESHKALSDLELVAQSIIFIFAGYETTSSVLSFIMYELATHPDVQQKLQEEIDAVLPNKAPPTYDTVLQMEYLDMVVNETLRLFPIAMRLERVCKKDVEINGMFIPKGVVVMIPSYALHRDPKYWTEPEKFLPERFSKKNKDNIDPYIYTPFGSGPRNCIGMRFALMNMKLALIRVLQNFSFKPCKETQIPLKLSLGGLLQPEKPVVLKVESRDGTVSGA
From the text: (§1) In vitro CYP450 inhibition screening allows for the prediction of potential drug-drug interactions. […] Potency and rank order of the inhibition can be assessed by determination of the IC50 values for a particular isozyme.
(§2) CYP3A4 inhibition was screened using the CYP3A4/BFC high throughput inhibitor screening kit (BD Biosciences), CYP2D6 inhibition was screened using the CYP2D6/AMMC high throughput inhibitor screening kit (BD Biosciences), and CYP2C9 inhibition was screened using the P450-Glo™ Assay kit (Promega).

CYP2D6 = target: T2, CYP2D6 (Homo sapiens, UniProt P10635); assay: CYP450 inhibition, CYP2D6/AMMC screening kit; type: in vitro ADME
T2 construct: purchased BD Biosciences
T2 sequence (P10635 whole entry): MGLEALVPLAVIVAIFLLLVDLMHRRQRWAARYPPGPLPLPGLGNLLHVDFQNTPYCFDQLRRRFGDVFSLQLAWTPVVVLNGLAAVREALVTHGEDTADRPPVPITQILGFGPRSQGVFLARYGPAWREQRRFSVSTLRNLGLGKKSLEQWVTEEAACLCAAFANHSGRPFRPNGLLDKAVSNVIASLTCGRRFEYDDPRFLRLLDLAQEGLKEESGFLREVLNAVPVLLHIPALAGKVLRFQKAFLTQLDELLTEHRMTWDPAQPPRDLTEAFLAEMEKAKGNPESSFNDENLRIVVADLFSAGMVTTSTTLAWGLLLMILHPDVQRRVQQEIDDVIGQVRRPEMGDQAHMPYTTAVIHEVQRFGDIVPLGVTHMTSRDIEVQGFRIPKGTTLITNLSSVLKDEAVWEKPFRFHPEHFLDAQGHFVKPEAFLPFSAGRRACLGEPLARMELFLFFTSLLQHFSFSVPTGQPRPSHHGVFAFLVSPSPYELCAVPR
From the text: as §1, §2

[1] = Metabolic stability in human liver microsomes; type: in vitro ADME; conditions: 10 μM, 1 mg/mL microsomes, 37° C.
From the text: (§3) The metabolic stability assay is to evaluate the stability of test compound in biological matrices. Data are useful in terms of understanding and predicting the elimination mechanisms of the test compound. CYP450-dependent metabolism of drugs can also vary widely from one species to another. Evaluating in vitro metabolism of a drug by liver microsomes from multiple species allows the comparison of metabolism in animal species to that of humans. This can help identify the most relevant animal model for PK and toxicology studies. The metabolic stability of a test compound was evaluated in vitro in liver microsomes of the rat, dog, monkey, and human. 10 μM of the test compound was pre-incubated for 5 min at 37° C. with 1 mg/mL liver microsomes in 0.1M Tris buffer, pH 7.4 containing 5 mM MgCl2 and 0.1 mM EDTA. Following pre-incubation, NADPH (final concentration of 3 mM) was added to start the reaction and samples incubated for 0 and 1 or 2 hours. After terminating the reaction, the supernatant was analyzed by HPLC-UV or LC/MS/MS for the disappearance of the parent and formation of metabolite(s). The %parent remaining was the peak area ratio of the 1 or 2 hr sample to the time 0 sample. In general, less metabolism (higher % parent values) is more desirable.

[2] = Metabolic stability in monkey liver microsomes; type: in vitro ADME; conditions: 10 μM, 1 mg/mL microsomes, 37° C.
From the text: as §3

[3] = Human plasma protein binding, equilibrium dialysis; type: in vitro ADME; conditions: pooled human plasma, 37° C., about 6 hours, 1 μM drug, read-out: Protein binding (human plasma) % Free
Experimental: The human plasma protein binding was determined using the Equilibrium Dialysis method. Dialysis was conducted with pooled human plasma at 37° C. for approximately 6 hours at a drug concentration of 1 μM. At the end of the dialysis, buffer samples from the buffer-side of the dialysis cell were collected and analyzed by LC/MS/MS for free drug concentration. For NNRTIs, a lower protein binding is more desirable.

CYP2C9 = target: T3, CYP2C9 (Homo sapiens, UniProt P11712); assay: CYP450 inhibition, CYP2C9 P450-Glo assay kit; type: in vitro ADME
T3 construct: purchased Promega
T3 sequence (P11712 whole entry): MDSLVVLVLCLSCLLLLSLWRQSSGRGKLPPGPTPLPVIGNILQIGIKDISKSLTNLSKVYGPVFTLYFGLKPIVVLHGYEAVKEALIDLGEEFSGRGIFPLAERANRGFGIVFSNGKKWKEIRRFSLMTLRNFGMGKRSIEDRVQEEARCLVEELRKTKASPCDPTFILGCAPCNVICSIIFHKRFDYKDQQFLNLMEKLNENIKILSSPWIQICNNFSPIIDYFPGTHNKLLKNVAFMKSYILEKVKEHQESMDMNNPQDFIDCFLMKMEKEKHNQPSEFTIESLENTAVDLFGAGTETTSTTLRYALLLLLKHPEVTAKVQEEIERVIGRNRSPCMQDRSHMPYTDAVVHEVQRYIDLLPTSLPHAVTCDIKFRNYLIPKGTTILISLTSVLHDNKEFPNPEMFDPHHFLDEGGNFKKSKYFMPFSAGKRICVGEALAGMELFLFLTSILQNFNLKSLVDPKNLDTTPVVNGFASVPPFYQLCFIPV
From the text: as §1, §2

[4] = pH dependent aqueous solubility, shake-flask method; type: physicochemical; conditions: aqueous solution, thermodynamic from solid, saturated concentration 1 mM
Experimental: The aqueous solubility of each compound was determined by the conventional shake-flask method at a saturated concentration of 1 mM. The flask (vial) was shaken for 3 hrs at ambient temperature, and then centrifuged. The supernatant was analyzed by HPLC with UV detection for solubility determination. In general, a higher aqueous solubility is more desirable for drug candidates.

[5] = Metabolic stability in dog liver microsomes; type: in vitro ADME; conditions: 10 μM, 1 mg/mL microsomes, 37° C.
From the text: as §3

[6] = Metabolic stability in rat liver microsomes; type: in vitro ADME; conditions: 10 μM, 1 mg/mL microsomes, 37° C.
From the text: as §3

[7] = PK and oral bioavailability in the rat; type: in vivo, Sprague-Dawley rats; conditions: for half-life: PEG400, read-out: T½ (converted); for Vd: PEG400, read-out: Vss
Experimental: (§4) The pharmacokinetics of a test compound was evaluated in Sprague-Dawley rats and Beagle dogs. A typical PK study involved dosing of 2 to 3 animals via a single IV bolus injection at 1 mg/kg and another 3 animals via a single oral gavage at 5 mg/kg. Blood samples were collected at various time points over a 24-hr period. Plasma was separated and analyzed for test compound and its metabolite(s) by LC/MS/MS. PK parameters were calculated from the plasma concentration—time profile using a noncompartmental method. Oral bioavailability (F) was calculated based on dose-normalized AUC values from oral and IV administration. Higher oral bioavailability values are better.

[8] = In vitro metabolism in liver microsomes, metabolic pathway; type: in vitro ADME, rat, dog, monkey, and human; conditions: LC/MS/MS metabolite profiling
Experimental: Phase I biotransformation of a test compound is evaluated in this assay. Samples from the metabolic stability experiment were analyzed by LC/MS/MS for metabolite profiling and identification. Structures of metabolites were elucidated based on multiple MS/MS experiments such as full scan, neutral loss scan, and product ion scan. Metabolic pathways were then postulated based on the structures of major metabolites. For compounds from the phosphinate series, N-oxidation of the terminal pyridine ring is the predominant pathway, followed by the oxidation of the dimethyl-phenyl group, where the methyl group(s) is hydroxylated, further oxidized to an aldehyde, and finally to a carboxylic acid. The elucidation of metabolic pathways is important in terms of understanding the elimination mechanism of a test compound and assisting the design of new molecules with improved DM-PK profiles.

[9] = PK and oral bioavailability in the dog; type: in vivo, Beagle dogs; conditions: for AUC(0-inf) / AUC(0-t) / Cmax / half-life / Vd / Tmax: Beagle, plasma; for Vd: PEG400, read-out: Vss
Experimental: as §4

[10] = pH 1, simulated gastric fluid, pH1, ambient temperature, read-out: Aqueous solubility pH1
[11] = pH 3, aqueous buffer, pH3, ambient temperature, read-out: Aqueous solubility pH3
[12] = pH 7, aqueous buffer, pH7, ambient temperature, read-out: Aqueous solubility pH7
[13] = pH 9, aqueous buffer, pH9, ambient temperature, read-out: Aqueous solubility pH9
[14] = PO, 5.0 mg/kg, PEG400, oral bioavailability
[15] = Sprague-Dawley, plasma, IV, 1.0 mg/kg, PEG400
[16] = Sprague-Dawley, plasma, IV, 1.0 mg/kg
[17] = Sprague-Dawley, plasma, PO, 5.0 mg/kg, PEG400
[18] = IV, 1.0 mg/kg, PEG400, read-out: T½ (converted)

## COP(=O)(C1=C(C(=O)NCc2ccncc2)N=C2C=CC(Cl)=C(F)C21)c1cc(C)cc(C)c1 (stereo not shown) [Compound O]
CYP3A4
  pIC50: 6.09
CYP2D6
  pIC50: 5.87
[1]
  Metabolic stability in liver microsomes % Parent after 2 hrs, Human: 15%
[2]
  Metabolic stability in liver microsomes % Parent after 2 hrs, Monkey: 1%
[3]
  fraction unbound at 6 h, 1 μM: 0.009
CYP2C9
  pIC50: 5.27
[4]; [10]
  solubility at 3 h: 820 µM (≈ 398 µg/mL)
[4]; [11]
  solubility at 3 h: 590 µM (≈ 287 µg/mL)
[4]; [12]
  solubility at 3 h: 9.1 µM (≈ 4.42 µg/mL)
[4]; [13]
  solubility at 3 h: 10.1 µM (≈ 4.91 µg/mL)
[5]
  Metabolic stability in liver microsomes % Parent after 2 hrs, Dog: 29%
[6]
  Metabolic stability in liver microsomes % Parent after 2 hrs, Rat: 2%

## COP(=O)(c1cc(C)cc(C)c1)c1c(C(=O)NCc2cc[n+]([O-])cc2)[nH]c2ccc(Cl)cc12 (stereo not shown) [Compound D]
CYP3A4
  pIC50: 5.97
[7]; IV, 1.0 mg/kg, PEG400
  AUCinf/Dose: 188.3
  CI: 90.297 mL/min/kg
[7]; PO, 5.0 mg/kg, PEG400
  AUCinf/Dose: 30.2
[7]; [14]
  F: 16.0%
[7]; [15]
  AUC(0-inf): 188 ng·h/mL
  AUC(0-t): 174 ng·h/mL
  Cmax: 166 ng/mL
[7]; [16]
  half-life: 0.9 h
  Vd: 6.37 L/kg
[7]; [17]
  AUC(0-inf): 151 ng·h/mL
  AUC(0-t): 132 ng·h/mL
  Cmax: 45 ng/mL
  Tmax: 0.5 h
[7]; Sprague-Dawley, plasma, PO, 5.0 mg/kg
  half-life: 2.2 h
CYP2D6
  pIC50: < 5.00
[1]
  Metabolic stability in liver microsomes % Parent after 2 hrs, Human: 76%
[2]
  Metabolic stability in liver microsomes % Parent after 2 hrs, Monkey: 24%
[3]
  fraction unbound at 6 h, 1 μM: 0.016
[8]
  Metabolic pathway (in vitro): Hydroxylation to CH3OH— to CHO— to COOH—
[9]; IV, 1.0 mg/kg, PEG400
  AUC(0-inf): 1220 ng·h/mL
  AUC(0-t): 1010 ng·h/mL
  Cmax: 430 ng/mL
  AUCinf/Dose: 1220.5
  CI: 13.7 mL/min/kg
[9]; [18]
  half-life: 3.2 h
[9]; IV, 1.0 mg/kg
  Vd: 3.72 L/kg
[9]; PO, 5.0 mg/kg, 0.5% MC
  AUC(0-inf): 747 ng·h/mL
  AUC(0-t): 696 ng·h/mL
  Cmax: 116 ng/mL
  Tmax: 2.7 h
  AUCinf/Dose: 149.3
[9]; PO, 5.0 mg/kg, 0.5% MC, read-out: T½ (converted)
  half-life: 2.6 h
[9]; PO, 5.0 mg/kg, 0.5% MC, oral bioavailability
  F: 12.4%
CYP2C9
  pIC50: < 5.00
[4]; [10]
  solubility at 3 h: 52 µM (≈ 25.2 µg/mL)
[4]; [11]
  solubility at 3 h: 74.2 µM (≈ 35.9 µg/mL)
[4]; [12]
  solubility at 3 h: 50.6 µM (≈ 24.5 µg/mL)
[4]; [13]
  solubility at 3 h: 66.8 µM (≈ 32.3 µg/mL)
[5]
  Metabolic stability in liver microsomes % Parent after 2 hrs, Dog: 82%
[6]
  Metabolic stability in liver microsomes % Parent after 2 hrs, Rat: 1%

## COP(=O)(C1=C(C(=O)NCc2ccncc2)N=C2C=CC(Cl)=CC21)c1cc(C)cc(C)c1 (stereo not shown) [Compound N]
CYP3A4
  pIC50: 6.18
[7]; IV, 1.0 mg/kg, PEG400
  AUCinf/Dose: 125.9
  CI: 133.2 mL/min/kg
[7]; [15]
  AUC(0-inf): 126 ng·h/mL
  AUC(0-t): 108 ng·h/mL
  Cmax: 119 ng/mL
[7]; [16]
  half-life: 0.9 h
  Vd: 9.59 L/kg
CYP2D6
  pIC50: 5.69
[1]; 1 hr (footnote *)
  Metabolic stability in liver microsomes % Parent after 1 hr incubation, Human: 22%*
[2]; 1 hr (footnote *)
  Metabolic stability in liver microsomes % Parent after 1 hr incubation, Monkey: 1%*
[3]
  fraction unbound at 6 h, 1 μM: 0.002
[9]; IV, 1.0 mg/kg, PEG400
  AUC(0-inf): 970 ng·h/mL
  AUC(0-t): 924 ng·h/mL
  Cmax: 407 ng/mL
  AUCinf/Dose: 970.1
  CI: 19.872 mL/min/kg
[9]; [18]
  half-life: 4.2 h
[9]; IV, 1.0 mg/kg
  Vd: 4.08 L/kg
[9]; PO, 5.0 mg/kg, PEG400
  AUC(0-inf): 139 ng·h/mL
  AUC(0-t): 116 ng·h/mL
  Cmax: 60.9 ng/mL
  Tmax: 0.7 h
  AUCinf/Dose: 27.7
[9]; PO, 5.0 mg/kg, PEG400, read-out: T½ (converted)
  half-life: 2.8 h
[9]; [14]
  F: 2.9%
[4]; [10]
  solubility at 3 h: > 1000 µM
[4]; [11]
  solubility at 3 h: 231 µM (≈ 108 µg/mL)
[4]; [12]
  solubility at 3 h: 2.1 µM (≈ 0.983 µg/mL)
[4]; [13]
  solubility at 3 h: 1.7 µM (≈ 0.795 µg/mL)
[5]; 1 hr (footnote *)
  Metabolic stability in liver microsomes % Parent after 1 hr incubation, Dog: 24%*
[6]; 1 hr (footnote *)
  Metabolic stability in liver microsomes % Parent after 1 hr incubation, Rat: 1%*

## COP(=O)(c1cc(C)cc(F)c1)c1c(C(=O)NCc2cc[n+]([O-])cc2)[nH]c2ccc(Cl)cc12 (stereo not shown) [Compound G]
CYP3A4
  pIC50: 5.94
CYP2D6
  pIC50: < 5.00
[1]
  Metabolic stability in liver microsomes % Parent after 2 hrs, Human: 85%
[2]
  Metabolic stability in liver microsomes % Parent after 2 hrs, Monkey: 41%
[3]
  fraction unbound at 6 h, 1 μM: 0.016
[8]
  Metabolic pathway (in vitro): Hydroxylation to CH3OH— to CHO— to COOH—
CYP2C9
  pIC50: 5.05
[5]
  Metabolic stability in liver microsomes % Parent after 2 hrs, Dog: 77%
[6]
  Metabolic stability in liver microsomes % Parent after 2 hrs, Rat: 24%
